Experimental findings from patent publication US11077119B2, “Enhanced brain bioavailability of galantamine by selected formulations and transmucosal administration of lipophilic prodrugs” (Neurodyn Life Sciences Inc., priority 2012, dated 2021) are described below.

A word on the half-life: it is how long it takes for the measured level to halve. Read a high half-life as slow loss. As a reminder, the solubility is the concentration that dissolves in the medium under given conditions.

Several values for one entry are separate records, joined by “and”; a condition that tells them apart may be missing. Identical values can stand only once. Like-named read-outs stand apart in the source and are kept apart here.

One series concerns ferrets. As to the kind of experiment: Gastro-intestinal side effects in ferrets. Particulars: i.p. On the procedure: These studies were performed in ferrets that were dosed i.p. with either 20 mg/kg galantamine (maximal tolerated dose), or with 20, 40 and 80 mg/kg Memogain, respectively.
For series [1] the following is noted: mouse, in vivo. The method, then: Mice were injected with 3 mg/kg i.v. of either Memogain or galantamine.
Series [2] in a line: Dog study, single intranasal dose: plasma and brain levels. The method, then: The study was performed in dogs. A single dose of 4 mg/kg intranasal Memogain was administered and the plasma levels of Memogain and liberated galantamine were determined as a function of time after administration.
A further series in a line: physchem. In kind it is physicochemical. On the procedure: Free Base in Water: 26 μg/ml (66 μM)
Maleate in Water: 7.5 mg/ml (15 mM)
Maleate in 0.9% NaCl: 0.6 mg/ml (1.5 mM)
Free Base in Cyclodextrin-Vehicle^1): 8.9 mg/ml (23 mM)
Maleate in Cyclodextrin-Vehicle): 21 mg/ml (41 mM) ^1) 15% (109 mM) Hydroxypropyl-β-cyclodextrin, 96 mM NaCl

In series [3] the test system is dogs. As to the kind of experiment: Safety after intravenous bolus. In kind it is in vivo. The method, then: Example 13. Memogain is at Least 10 Times Safer than Galantamine
This study was performed in dogs, and both drugs were administered as intravenous bolus. The lower toxicity of Memogain is due to the much lower steady-state plasma levels of galantamine resulting from enzymatic cleavage of the pro-drug (FIG. 11).

For series [4] the following is noted: 3 mg/kg. The method, then:
The pharmacokinetics and brain-to-blood concentration ratios (BBRC) of several galantamine derivatives and their cleavage product galantamine were evaluated after intranasal administration in Swiss albino mice at a dose of 3 mg/kg. After extraction from brain and blood, the drug concentrations were determined by LC/MS/MS. For comparison, the BBRC for the parent drug galantamine was also determined.

In series [5] the test system is rats. Particulars: rat, in vivo.
In series [6] the test system is rats. Conditions: rat, in vivo. This is another data set of the same source.
The conditions of series [7]: in vivo.
For series [8], the system named is dogs. Conditions: dog, in vivo.
Details of series [9]: species or system Wistar rats. Particulars: rat, in vivo, 3 mg/kg. The method, then:
The first-pass effect of Gln-1062 was evaluated after intravenous and intraportal dosing of 3 mg/kg in Wistar rats (FIG. 8).

The test system of series [10] is scopolamine-induced amnesia in mice. The series is described as follows: Reversal of scopolamine-induced amnesia in T-maze. The class given is in vivo. Conditions: scopolamine i.p.; intranasal Memogain versus galantamine. The source says:
We therefore used pharmacodynamics studies to determine the effective concentrations of parent drug in suitable experimental conditions, such as the reversal of scopolamine-induced temporary amnesia in the T-maze cognitive paradigm studied in mice. These studies confirmed that several fold higher (up to 20 fold) BBRC of parent drug (and related effectiveness in cognitive enhancement) can be achieved by transmucosal delivery of pro-drug formulations via the nasal or buccal cavity.
Mice were treated with scopolamine to induce acute amnesia and were then tested for performance in a T-maze, in the absence or presence of […] galantamine or intranasal Memogain (FIG. 7). […] Mice were challenged with Scopolamine i.p. in a T-maze assay to induce disorientation/amnesia (set to 0% performance recovery). Co-application of galantamine (i.p.) or of Memogain® (i.n.) rescues orientation in the T-maze in a dose-dependent manner.

Series [11] concerns the target acetylcholinesterase (AChE) (Homo sapiens, UniProt P22303). As to the kind of experiment: esterase inhibition compared with galantamine. In kind it is biochemical. Particulars: read-out: esterase inhibition, relative to that induced by the same concentration of galantamine. The method, then: Said derivative of galantamine can be obtained by a one-step chemical modification of the parent drug (galantamine). The modification almost completely abolishes the pharmacological activity of galantamine on its two major targets in the human body, nicotinic acetylcholine receptor (nAChR) and acetylcholinesterase (AChE).
At the physiologically interesting concentration of 1 μM, Memogain has less than 4% of the esterase inhibition induced by the same concentration of galantamine.

The format of series [12] is in vivo. From the text: Intranasal dosing can be done with simple spray-pump methods, although also many other methods can be used.
The nature of series [13]: Solubility test of Memogain salts in water (HPLC). Conditions: after warming to >50° C.; precipitation seeding avoided. The class given is physicochemical.
Protocol: 10 mg of the corresponding salt and 100 microliters of water were sonicated for 5 min at r.t. The resulting solution or suspension was centrifuged for 3 min. and filtered using a filter tip. 10 microliters of the filtrate was transferred in a volumetric flask and diluted to 10.0 ml with water to obtain the sample solution. 20 microliters of this sample solution was injected for HPLC and the amount of Memogain quantified using a Merck Chromolith RP18 column and a gradient of 5% to 60% acetonitrile and water, both solvents containing 0.1% formic acid, injection volume: 20 microliters.

Chain of acetylcholinesterase (AChE) (P22303 32-614): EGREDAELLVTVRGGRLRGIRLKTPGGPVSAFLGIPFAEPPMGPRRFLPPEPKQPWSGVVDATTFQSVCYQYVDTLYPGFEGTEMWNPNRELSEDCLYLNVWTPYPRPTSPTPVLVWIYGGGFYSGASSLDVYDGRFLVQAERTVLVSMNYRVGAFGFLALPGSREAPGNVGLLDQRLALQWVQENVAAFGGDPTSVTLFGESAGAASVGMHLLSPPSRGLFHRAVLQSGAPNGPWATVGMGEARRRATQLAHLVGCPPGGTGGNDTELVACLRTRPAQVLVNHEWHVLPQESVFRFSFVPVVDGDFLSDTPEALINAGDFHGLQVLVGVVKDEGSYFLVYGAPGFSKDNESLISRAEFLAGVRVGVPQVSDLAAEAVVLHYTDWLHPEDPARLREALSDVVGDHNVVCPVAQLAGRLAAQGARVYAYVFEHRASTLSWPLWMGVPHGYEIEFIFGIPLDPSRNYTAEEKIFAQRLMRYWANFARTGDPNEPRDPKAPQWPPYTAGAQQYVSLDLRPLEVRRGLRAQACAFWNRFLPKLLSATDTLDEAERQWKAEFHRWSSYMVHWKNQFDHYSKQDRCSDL

Take `COc1ccc2c3c1O[C@H]1C[C@@H](O)C=C[C@@]31CCN(C)C2` [galantamine]: the maximal tolerated dose in the series with ferrets is reported as 20 mg/kg. The BBRC in [1] was ~1:1. For the same compound, in series [2] (in vivo, 4 mg/kg), the Kp at 120 min lay within 1 to 1.5 and the half-life is 6 h.
For `COc1ccc2c3c1O[C@H]1C[C@@H](OC(=O)c4ccccc4)C=C[C@@]31CCN(C)C2.O=C(O)/C=C\C(=O)O` [Memogain maleate], the “Solubility in 0.9% NaCl” value in the series “physchem” (0.9% NaCl) is 0.6 mg/ml and 1.5 mM. Moreover, in the series “physchem” (15% (109 mM) Hydroxypropyl-β-cyclodextrin, 96 mM NaCl), the “Solubility in Cyclodextrin-Vehicle” value is 21 mg/ml and 41 mM. In “physchem” (water), the “Solubility in Water” value is 7.5 mg/ml and 15 mM.
With `COc1ccc2c3c1O[C@H]1C[C@@H](OC(=O)c4ccccc4)C=C[C@@]31CCN(C)C2` [GLN-1062, (4aS,6R,8aS)-4a,5,9,10,11,12-hexahydro-3-methoxy-11-methyl-6H-Benzofuro[3a,3,2-ef][2]benzazepin-6-ol, 6-benzoate], the “lower toxicity as compared to galantamine” value with ferrets (from dose dependency of adverse effects (20, 40, 80 mg/kg)) was “at least 4 times”. Also, the “safety compared with galantamine” value in the series on dogs [3] is listed as “at Least 10 Times”. In addition, the “BBRC compared with galantamine” value in [4] (mouse, in vivo) is listed as “particularly large BBRC”. For the same compound, the “adverse effects compared with galantamine” value in the series with rats [5], in the series with rats [6] and in the series on dogs [8] was “much less adverse effects” each time. Also, the GI-related side effects entry in series [7] was “GI-related side effects had practically disappeared”. Also, the “maximal concentration levels in the brain, compared with i.v. administration” value in [9] is on record as “similarly high maximal concentration levels”. Further, the “reversal of acutely induced amnesia (T-maze performance)” value in [10] is reported as “more effective than galantamine”. Besides, in series [11], the inhibition at 1 µM is less than 4%. Moreover, the GI side effects result in series [12] (in vivo) is reported as “no GI side effects were observed”. In series [2] (dog), the half-life worked out at 1.5 h. In [2] (dog, 4 mg/kg), this compound had a Kp at 120 min of 9. Besides, the solubility in “physchem” (aqueous with cosolvent or surfactant or cyclodextrin) is 8900 µg/mL and 23000 µM; in the series “physchem” (water), 26 µg/mL and 66 µM.
For the compound `COc1ccc2c3c1O[C@H]1C[C@@H](OC(=O)c4ccccc4)C=C[C@@]31CCN(C)C2.O=C(O)C(O)C(O)C(O)C(O)CO` [Memogain gluconate, galantamine benzoate gluconate], the “BBRC compared with galantamine” value in series [4] (intranasal, LC/MS/MS) was “much larger BBRC than galantamine”. The “stability of metastable high-concentration aqueous solution” value in series [13] is “stable for hours and days”. The “local sensation on intranasal dosing” value in series [12] (intranasal) is “no burning sensation to nose”.
